This is an account of results in patent publication US9844541B2, “Methods of modulating follicle stimulating hormone activity” (Strasspharma LLC, priority 2012, dated 2017).

A short description of data set [1]: Adverse effects and reproductive examination in patient treated with vismodegib (case study). The format is in vivo, human. To be noted: 150 mg daily. The source says:
(§1) A nulliparous person with a known diagnosis of Gorlin syndrome (Basal cell carcinoma nevus syndrome: Online Mendelian Inheritance in Man #109400) presented with more than 100 discrete BCC papules on the upper trunk and head, and neck regions. They were diagnosed and treated for lymphoma in 1988, prior to the BCCNS diagnosis and received chemotherapy and radiation therapy to the mantle zone, followed by radical neck dissection. They have remained in remission and their therapy had no apparent effect on menstrual function. They experienced menarche and had regular menses at 30 to 35 day intervals until starting the current therapy. Medications included synthroid 0.15 mg for longstanding hypothyroidism.
(§2) Several of their BCC lesions, while not clinically large, appeared in this area of combined radiation and surgical sclerosis overlying the carotid sheath. Multidisciplinary consultation recommended against further surgery. They commenced therapy with vismodegib (Erivedge™ Genentech, Inc., San Francisco, Calif.) 150 mg daily. […] Shortly thereafter they underwent a reproductive endocrinology evaluation.

Data set [2] concerns follicle stimulating hormone (FSH) receptor (FSH-R). Put plainly: Conclusion from endocrine profile: effect on FSH receptor signaling. The format is in vivo, human. Conditions: concluded from the endocrine profile of one patient. The method, then:
(§3) Results of reproductive endocrine testing were unique and novel (Table 1). […] elevated FSH and low estrogen level were indicative of a markedly diminished ovarian reserve. However, the presence of preantral follicles and the high AMH value indicated preservation of normal ovarian potential and possible reversal of effect following cessation of therapy.
The endocrine profile of a patient who developed amenorrhea while taking vismodegib (Erivedge™) was determined. […] Secondary amenorrhea, […] of established menses, may result from a variety of conditions, including suppression of the pituitary release of FSH or its hypothalamic control via gonadotropin releasing hormone GnRH. This can be drug induced, but patients presenting in this manner typically have very low or non-detectable gonadotropin (FSH and LH) levels and low estrogen levels. Alternatively, patients with ovarian failure (follicle depletion or menopause) present with high gonadotropins, which may be induced by radiation and/or medication such as chemotherapy.
This led to the conclusion that the cause of amenorrhea in at least this patient treated with visomdegib was due to blockage of the follicle stimulating hormone (FSH) receptor (FSH-R) signaling.

Data set [3] relates to BCC lesions (Gorlin syndrome). Put plainly: Clinical response of BCC lesions in patient treated with vismodegib (case study). The format is in vivo, human. Conditions: 150 mg daily, six months after commencing therapy.
Source text: as §1, §2

The nature of data set [4]: Reproductive endocrine testing of patient treated with vismodegib (case study). Format: in vivo, human. Conditions: patient on vismodegib 150 mg daily, about six months.
Source text: as §1, §2, §3

The conditions of data set [5]: oral therapy of BCC; cited from earlier work.
Where [6] appears, read: shortly after six months of therapy.

Take `CS(=O)(=O)c1ccc(C(=O)Nc2ccc(Cl)c(-c3ccccn3)c2)c(Cl)c1` [vismodegib]: the Side effects result in data set [1] (approximately four months after onset of amenorrhea) is “hair loss, slight dysgeusia, and minor leg cramping”. Moreover, the Menstrual function result in data set [1] (one month after start) is “became amenorrheic”. Moreover, in data set [1] (setting [6]), the “Transvaginal ultrasonography of ovaries” value is “normal ovaries, bilaterally containing multiple pre-antral follicles” and the Vaginal exam findings entry was “moderate atrophic vaginal changes suggesting hypoestrogenism”. The “Effect on FSH action at FSH-R” value in data set [2] is given as “blocked the action of FSH on the FSH-R”. In addition, the “Clinical resolution of BCC lesions” value in data set [3] is listed as “near complete clinical resolution of all lesions”. In data set [4] (follicular phase normal 2-8 IU/L), the “Follicle stimulating hormone (FSH) level” value came out at 16.0 IU/L. For the same compound, the Progesterone level in data set [4] (follicular phase range 0.2-1.5) amounted to 0.4. Moreover, the Estradiol level in data set [4] (follicular phase range 12.5-166 pg/ml) was 26.9 pg/mL. In addition, the “Anti-mulerian hormone (AMH) level” value in data set [4] (normal range <6.9) was 2.6. Also, in data set [4] (ovulation phase range 14.0-95.6), the “Leutinizing hormone (LH) level” value is recorded as 25.3. In addition, in data set [5], the Major side effects result is “dysgeusia, alopecia, leg cramping, and gastrointestinal disturbances”.
